Assay [1] concerns the target ZFP91 (zinc finger protein 91) (Homo sapiens, UniProt Q96JP5). The assay is described as follows: MST. The assay is classed as binding.
For a further assay, the target named is E2F2 (Homo sapiens, UniProt Q14209). The experiment in a line: competition in biotin-bufalin pull-down from HepG2 lysate. The assay is classed as cell-based.
Chain of E2F2 (Q14209 whole entry): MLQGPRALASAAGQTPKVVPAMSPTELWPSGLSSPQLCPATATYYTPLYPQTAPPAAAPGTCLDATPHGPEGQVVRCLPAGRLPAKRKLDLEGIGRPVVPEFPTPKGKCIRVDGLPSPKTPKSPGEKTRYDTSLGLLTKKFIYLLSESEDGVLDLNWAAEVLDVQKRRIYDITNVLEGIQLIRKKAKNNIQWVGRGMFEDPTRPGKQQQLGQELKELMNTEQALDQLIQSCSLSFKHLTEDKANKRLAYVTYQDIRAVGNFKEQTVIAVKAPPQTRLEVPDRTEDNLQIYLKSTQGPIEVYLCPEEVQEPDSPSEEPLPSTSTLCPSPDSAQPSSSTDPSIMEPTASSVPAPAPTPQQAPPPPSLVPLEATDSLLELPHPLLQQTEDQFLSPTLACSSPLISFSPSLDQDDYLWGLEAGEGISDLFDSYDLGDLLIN

Chain of ZFP91 (zinc finger protein 91) (Q96JP5 2-570): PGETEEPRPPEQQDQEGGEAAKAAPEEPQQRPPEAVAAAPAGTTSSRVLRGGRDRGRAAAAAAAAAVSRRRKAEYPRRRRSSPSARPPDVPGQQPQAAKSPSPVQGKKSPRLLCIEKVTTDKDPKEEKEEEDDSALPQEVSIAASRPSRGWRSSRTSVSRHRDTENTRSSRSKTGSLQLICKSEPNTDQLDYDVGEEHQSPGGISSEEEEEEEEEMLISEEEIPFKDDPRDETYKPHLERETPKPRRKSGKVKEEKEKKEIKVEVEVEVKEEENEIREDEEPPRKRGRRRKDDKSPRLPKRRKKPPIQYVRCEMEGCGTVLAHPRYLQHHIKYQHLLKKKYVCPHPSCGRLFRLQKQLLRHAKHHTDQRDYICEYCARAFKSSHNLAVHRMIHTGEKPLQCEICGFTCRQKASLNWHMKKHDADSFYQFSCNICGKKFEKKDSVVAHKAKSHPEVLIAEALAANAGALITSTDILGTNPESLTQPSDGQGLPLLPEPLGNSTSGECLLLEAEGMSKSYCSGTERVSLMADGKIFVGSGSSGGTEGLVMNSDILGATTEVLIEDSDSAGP

For orientation: Kd means the free concentration of one partner at which half of the binding sites on the other are occupied at equilibrium, for simple one-to-one binding. On to `O=c1cccco1` [α-Pyr, α-Pyrone], for which the Kd in assay [1] amounted to 900 ± 322 nM.

With `C[C@]12CC[C@@H](O)C[C@@H]1CC[C@@H]1[C@@H]2CC[C@]2(C)C(=O)CC[C@@H]12` [DHA, androsterone], the “competition in biotin-bufalin pull-down from HepG2 lysate” value at E2F2 is reported as “DHA significantly limited the binding of biotin-bufalin to E2F2”.

For the origin of these results see publication PMC9667253 (eBioMedicine, 2022).
